Assays:
[1] = biological target: RBP4 (Mus musculus (Mouse), UniProt Q00724); assay: Single administration test in mice, plasma RBP4 by ELISA; assay type: in vivo; conditions: male C57BL/6J or ICR mice, 50 mg/kg oral single dose, mean±SD
Outline: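 Male 6–12-week-old C57BL/6J or ICR mice on CE2 diet received compound orally at 50 mg/10 mL/kg in 0.5% methylcellulose (3–5 per group). Plasma sampled at 0, 4, 7 and 24 hr post-dose; RBP4 measured by sandwich ELISA (OD 450 nm) against mouse recombinant RBP4 standards, expressed as % of initial/Control.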

[2] = biological target: human RBP4 (Homo sapiens (Human), UniProt P02753); assay: Binding assay by Retinol-RBP4-TTR ELISA
Outline: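 Biotinylated human TTR was captured on streptavidin plates, then His-tagged human RBP4 was added with compound premixed with 50 nM retinol (8 doses). Binding ran 2 h at room temperature in 50 mM Tris-HCl, 150 mM NaCl, 0.005% Tween 20, 1 mM DTT, 0.1% BSA, read by luminescence. Inhibition was scaled between retinol+DMSO and retinol-free controls, and IC50 fitted.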

SMILES: CC(C)(C)c1ccccc1N1CCN(C(=O)C(=O)O)CC1 [Example 44, 2-[4-(2-tert-Butylphenyl)piperazin-1-yl]-2-oxoacetic acid]
- RBP4 (% of initial/Control) 0 hr ([1]; 0 hr (just before the administration)): 100.0 ± 25.0 % of initial/Control
- RBP4 (% of initial/Control) 4 hr ([1]; 4 hr after administration): 52.4 ± 2.8 % of initial/Control
- RBP4 (% of initial/Control) 7 hr ([1]; 7 hr after administration): 50.2 ± 0.9 % of initial/Control
- RBP4 (% of initial/Control) 24 hr ([1]; 24 hr after administration): 145.9 ± 19.6 % of initial/Control
- inhibition at 10 µM ([2]; at 10 μM compound, read-out: human RBP4 binding inhibitory activity(% at 10 μM)): 100%
- IC50 ([2]; retinol 50 nM, His-tagged human RBP4, biotinylated human TTR, read-out: human RBP4 binding inhibitory activity (IC50 nM)): 38 nM
